Earlier results, collected in US20040138296A1, “Amyloid immunization and Cox-2 inhibitors for the treatment of alzheimer's disease” (Pharmacia Corporation, priority 2002, published 2004).

Experiments:
[1] = test system: neurons; conditions: Abeta (25-35) and Abeta (1-40)
[2] = test system: AD patients; conditions: for other adverse effects: metrifonate in Phase III trials
[3] = test system: glia reaction, iNOS production; conditions: once a day, seven days following the injection
[4] = test system: NG108-15 cells; conditions: by inhibition of APP mRNA level
[5] = test system: mild or moderately impaired Alzheimer's disease patients; conditions: 100-150 mg, 6 months
[6] = test system: microglial and astrocytic activation; conditions: adult rats, Abeta (1-42) into nucleus basalis
[7] = test system: AD patients; conditions: over 300 AD patients

CCN1CC/C(=C\c2cc(C(C)(C)C)c(O)c(C(C)(C)C)c2)S1(=O)=O [Compound S-2474]
Abeta induced cell death of neurons [1]: significantly prevented

COc1cc2c(cc1OC)C(=O)C(CC1CCN(Cc3ccccc3)CC1)C2 (centres unmarked) [Donepezil]
AD-associated deterioration ([2]; controlled trials, mild to moderately severe AD patients): can delay AD-associated deterioration
gastrointestinal side effects ([2]; patients): relatively low incidence of gastrointestinal side effects

CCN(C)C(=O)Oc1cccc([C@H](C)N(C)C)c1 [Rivastigmine]
duration of action ([2]; human, in vivo): 10 h
gastrointestinal side effects ([2]; patients): some gastrointestinal side effects
other adverse effects ([2]; patients): weight loss

Nc1c2c(nc3ccccc13)CCCC2 [Tacrine]
half-life ([2]; cholinesterase inhibitor in AD use): short half-life
hepatotoxicity ([2]; patients): hepatotoxic effects in a number of patients

CC(C)Cc1ccc(C(C)C(=O)O)cc1 (centres unmarked) [ibuprofen]
astrocytic reaction [3]: no effect on astrocytic reaction
microglia reaction [3]: attenuated microglia reaction
number of iNOS-positive cells [3]: reduced the number of iNOS-positive cells

COc1ccc2c(c1)c(CC(=O)O)c(C)n2C(=O)c1ccc(Cl)cc1 [indomethacin]
production of amyloid β-peptide and a secreted form of APP [4]: suppressed production
cognitive decline versus placebo [5]: appeared to protect the patients

COP(=O)(OC)C(O)C(Cl)(Cl)Cl (centres unmarked) [metrifonate]
other adverse effects ([2]; patients): leg cramps and muscle cramps

CS(=O)(=O)Nc1ccc([N+](=O)[O-])cc1Oc1ccccc1 [nimesulide, N-(4-Nitro-2-phenoxy-phenyl)-methanesulfonamide]
astrocytic reaction [3]: no effect on astrocytic reaction
microglia reaction [3]: attenuated microglia reaction
number of iNOS-positive cells [3]: reduced the number of iNOS-positive cells

CS(=O)(=O)c1ccc(C2=C(c3ccccc3)C(=O)OC2)cc1 [rofecoxib]
microglial and astrocytic activation [6]: attenuated microglial and astrocytic activation

C#CCN(C)[C@H](C)Cc1ccccc1 [selegeline, Selegiline]
progression of the disease [7]: slow the progression of the disease

Cc1c(C)c2c(c(C)c1O)CC[C@@](C)(CCC[C@H](C)CCC[C@H](C)CCCC(C)C)O2 [vitamin E, alpha-tocopherol]
progression of the disease [7]: slow the progression of the disease
